Experimental data: publication PMC10731658 (Chemical Research in Toxicology, 2023)
pIC50: −log10 of the molar value.

Tests used:
[1] = tested on: HepG2 cells; assay: Intracellular RONS detection with DCFH-DA fluorescent probe; type: cell-based, human; conditions: IC50 concentration
Protocol: (§1) Two different fluorescent dyes, i.e., 2,7-dichlorodihydrofluorescein diacetate (DCFH-DA, Cayman Chemicals Company, Ann Arbor, MI) and dihydroethidium (DHE, Sigma-Aldrich, St. Louis, MO) were utilized for the determination of intracellular levels of RONS after 1, 4, and 24 h of incubation with tested oxime reactivators or TBHP (positive control). Cells incubated with oxime-free DMEM represented untreated control. After the incubation, the experimental medium was removed and replaced with a solution of DCFH-DA or DHE at concentrations of 20 and 5 μmol/L, respectively. The cells were subsequently incubated at 37 °C in a CO2 incubator for 45 min. Afterward, the fluorescence intensity of each well was measured using a Spark multimode microplate reader at an excitation wavelength of 485 nm for DCFH-DA or 528 nm for the DHE probe and an emission wavelength of 535 or 590 nm, respectively. Each experiment was carried out in triplicate and repeated three independent times.
(§2) The toxicological indices IC50 were calculated from control-subtracted triplicates using nonlinear regression (four parameters) using GraphPad Prism 9 software version 9.3.0 (GraphPad Software Inc., San Diego, CA). One-way analysis of variance (ANOVA) followed by Dunnetʼs multiple comparison test was used for RONS, MDA, NP-SH, and NP-SS-NP statistical analysis by GraphPad Prism 9 software, version 9.3.0. Data are expressed as means ± standard deviation (SD) of three independent measurements (n = 3). Significant differences between oxime-treated and untreated control groups (p ≤ 0.05) were marked by an asterisk (*).

[2] = tested on: HepG2 cells; assay: Intracellular RONS detection with DHE fluorescent probe; type: cell-based, human; conditions: IC50 concentration
Protocol: as §1, §2

[3] = tested on: HepG2 cells; assay: Total intracellular MDA by LC-MS/MS; type: cell-based, human; conditions: IC50 concentration
[4] = tested on: HepG2 cells; assay: Intracellular nonprotein thiols (NP-SH) by HPLC-UV; type: cell-based, human; conditions: 24 h, IC50 concentration
Protocol: (§3) The culture medium was removed from a 25 cm^2 culture flask on the day of the experiment, and cells were washed twice with 3 mL of phosphate-buffered saline (PBS; GE Healthcare Life Sciences, South Logan, UT). Subsequently, 3 mL of a plain DMEM medium (negative control) and a DMEM medium containing TBHP (positive control) or individual oximes were added to each flask, and cells were incubated for 1, 4, and 24 h. The concentration of individual oxime and TBHP in the DMEM medium corresponded to the IC50 value. After incubation, the experimental medium was removed, and cells were washed with 3 mL of PBS and harvested by scraping. The resulting suspension was centrifuged at 220g and 21 °C for 5 min (Universal 320R centrifuge, Hettich, Tuttlingen, Germany). The supernatant was removed and dried cell pellets were stored at −80 °C. Each experiment was carried out in three independent replicates.
(§4) The cell pellets were thawed at room temperature, resuspended in 500 μL of ultrapure water (Millipore Purification System, Merck, Millipore, Darmstadt, Germany), and sonicated for 2 min (2 s cycle, amplitude 20%) in a Q500 homogenizer (QSONICA Sonicators, Newton). Then, the homogenate was divided into three parts: 250 μL for the determination of malondialdehyde (MDA), 100 μL for each determination of nonprotein thiols (NP-SH) and disulfides (NP-SS-NP), and 10 μL for the Bradford protein assay.
(§5) The HepG2 cell homogenate obtained, as described in Section 2.6, was processed for the determination of intracellular NP-SH and NP-SS-NP, according to Muckova et al.[11] The samples were analyzed using the HPLC system described above equipped with an SPD 20-AV Prominence UV/vis detector. The analysis was carried out on a Phenomenex LUNA C18 column (150 mm × 3 mm, 3 μm, 100 Å) protected with a Security Cartridge (4 mm × 2 mm, Phenomenex, Torrance) at 30 °C and a constant flow rate of 0.330 mL/using the mobile phase consisting of 0.9% aqueous FA (A) and ACN (B) under gradient conditions: 0–1 min 12% B, 1.1–2 min 12–55% B, 2–7 min 55% B, 7.1 min 55% B, and 7.1–10 min 12% B. The detector was set at 326 nm and the sample injection volume was 20 μL.

[5] = tested on: HepG2 cells; assay: Intracellular nonprotein disulfides (NP-SS-NP) by HPLC-UV; type: cell-based, human; conditions: IC50 concentration
Protocol: as §3, §4, §5

[6] = tested on: AChE; conditions: in rat blood; read-out: IC50 (concentration required to inhibit AChE activity by 50%); cited from earlier work
[7] = tested on: HepG2 cells; conditions: combined exposure with TBHP (IC50 concentration); oximes about 10-fold below IC50; cited from earlier work
[8] = reference not given; cited from earlier work
[9] = Colorimetric MTT cell viability assay, 24 h; conditions: human, HepG2 cells, IC50 (cytotoxicity, MTT assay), 24 h incubation
[10] = tested on: HepG2 cells; assay: Colorimetric MTT cell viability assay, 24 h; conditions: read-out: IC50 (cytotoxicity, MTT assay), 24 h incubation

With `NC(=O)c1cc[n+](CCCC[n+]2ccc(C=NO)cc2)cc1.[Br-].[Br-]` [K048, 4-carbamoyl-1-(4-(4-((hydroxyimino)methyl)pyridin-1-ium-1-yl)butyl)pyridin-1-ium dibromide] as the molecule, how does the “increase of RONS (DCFH-DA probe) vs negative control” value (“increase of RONS (DCFH-DA probe)” for short) ([1]; 1 h incubation) read?
The value was 146%.

What about the “increase of RONS (DCFH-DA probe)” value ([1]; 4 h incubation) of the same molecule?
Its value is 193%.

And the “increase of RONS (DCFH-DA probe)” value ([1]; 24 h incubation)?
The value was 115%.

And the “increase of RONS (DHE probe) vs negative control” value (from here on “increase of RONS (DHE probe)”) ([2]; 4 h incubation)?
Its value is 25.8%.

And the “increase of MDA levels vs untreated control” value (“increase of MDA levels” for short) ([3]; 4 h incubation)?
Its value is 17.2%.

What about the “increase of MDA levels” value ([3]; 24 h exposure) of the same molecule?
Its value is 35.4%.

And the “decrease in NP-SH levels vs untreated control” value [4]?
Its value is 11.4%.

What about the “increase in NP-SS-NP levels vs untreated control” value (shortened to “increase in NP-SS-NP levels”) ([5]; 1 h) of the same molecule?
Its value is 34.8%.

What about the “increase in NP-SS-NP levels” value ([5]; 4 h) of the same molecule?
Its value is 54.8%.

And the “increase in NP-SS-NP levels” value ([5]; 24 h)?
The value was 61.5%.

And the pIC50 [6]?
Its pIC50 is about 3.19.

And the “increased production of ROS” value [7]?
The value was 25%.

And the “log P” value [8]?
The value was −2.61.

What about the IC50 at 24 h [9] of the same molecule?
Its IC50 at 24 h is about 30 mM.

What about the pIC50 [10] of the same molecule?
The pIC50 was 1.51.

Which “increase of RONS (DCFH-DA probe)” value ([1]; 1 h incubation) does the source give for `O/N=C/c1cc[n+](CCCC[n+]2ccc(/C=N/O)cc2)cc1` [K074, 1,1′-(butane-1,4-diyl)bis(4((hydroxyimino)methyl)pyridine-1-ium) dibromide] here?
The value was 171%.

And the “increase of RONS (DCFH-DA probe)” value ([1]; 4 h incubation)?
The value was 244%.

What about the “increase of RONS (DCFH-DA probe)” value ([1]; 24 h incubation) of the same molecule?
Its value is 117%.

And the “increase of RONS (DHE probe)” value ([2]; 4 h incubation)?
The value was 33.4%.

What about the “increase of RONS (DHE probe)” value ([2]; 24 h incubation) of the same molecule?
Its value is 42.8%.

What about the “increase of MDA levels” value ([3]; 4 h incubation) of the same molecule?
Its value is 23.6%.

And the “increase of MDA levels” value ([3]; 24 h exposure)?
Its value is 36.1%.

And the “decrease in NP-SH levels vs untreated control” value [4]?
Its value is 11.6%.

What about the “increase in NP-SS-NP levels” value ([5]; 1 h) of the same molecule?
Its value is 42.8%.

And the “increase in NP-SS-NP levels” value ([5]; 4 h)?
Its value is 52.4%.

And the “increase in NP-SS-NP levels” value ([5]; 24 h)?
Its value is 72.3%.

What about the pIC50 [6] of the same molecule?
The pIC50 was about 4.18.

And the “increased production of ROS” value [7]?
The value was 16%.

And the “log P” value [8]?
The value was −1.74.

What about the IC50 at 24 h [9] of the same molecule?
Its IC50 at 24 h is about 27 mM.

And the pIC50 [10]?
The pIC50 was 1.57.
